According to patent US8993752B2, “Neprilysin inhibitors” (Theravance Biopharma R&D IP, LLC, priority 2011, dated 2015):

Target: T1, human NEP (Homo sapiens, UniProt P08473)
T1 construct: purchased R&D Systems, Minneapolis, Minn; 1182-ZN
Experiment: In vitro enzyme inhibition assay at human NEP (fluorogenic peptide substrate)
Type: biochemical
Settings: recombinant human NEP; substrate Mca-D-Arg-Arg-Leu-Dap-(Dnp)-OH 10 μM; 37° C.; values given as ranges; read-out: pKi values at human NEP (converted)
Description: The inhibitory activities of compounds at human and rat neprilysin (EC 3.4.24.11; NEP) and human angiotensin converting enzyme (ACE) were determined using in vitro assays as described below.
Recombinant human NEP and recombinant human ACE were obtained commercially (R&D Systems, Minneapolis, Minn., catalog numbers 1182-ZN and 929-ZN, respectively). The fluorogenic peptide substrate Mca-D-Arg-Arg-Leu-Dap-(Dnp)-OH (Medeiros et al. (1997) Braz. J. Med. Biol. Res. 30:1157-62; Anaspec, San Jose, Calif.) and Abz-Phe-Arg-Lys(Dnp)-Pro-OH (Araujo et al. (2000) Biochemistry 39:8519-8525; Bachem, Torrance, Calif.) were used in the NEP and ACE assays respectively.
The assays were performed in 384-well white opaque plates at 37° C. using the fluorogenic peptide substrates at a concentration of 10 μM in Assay Buffer (NEP: 50 mM HEPES, pH 7.5, 100 mM NaCl, 0.01% polyethylene glycol sorbitan monolaurate (Tween-20), 10 μM ZnSO4; ACE: 50 mM HEPES, pH 7.5, 100 mM NaCl, 0.01% Tween-20, 1 μM ZnSO4).
Test compounds were assayed over the range of concentrations from 10 μM to 20 pM. Test compounds were added to the enzymes and incubated for 30 minute at 37° C. prior to initiating the reaction by the addition of substrate. Reactions were terminated after 20 minutes of incubation at 37° C. by the addition of glacial acetic acid to a final concentration of 3.6% (v/v).
Plates were read on a fluorometer with excitation and emission wavelengths set to 320 nm and 405 nm, respectively Inhibition constants were obtained by nonlinear regression of the data using the equation (GraphPad Software, Inc., San Diego, Calif.): v=v0/[1+(I/K′)] where v is the reaction rate, v0 is the uninhibited reaction rate, I is the inhibitor concentration and K′ is the apparent inhibition constant.
Compounds of the invention were tested in this assay and found to have pKi values at human NEP as follows.

T1 sequence (P08473 whole entry): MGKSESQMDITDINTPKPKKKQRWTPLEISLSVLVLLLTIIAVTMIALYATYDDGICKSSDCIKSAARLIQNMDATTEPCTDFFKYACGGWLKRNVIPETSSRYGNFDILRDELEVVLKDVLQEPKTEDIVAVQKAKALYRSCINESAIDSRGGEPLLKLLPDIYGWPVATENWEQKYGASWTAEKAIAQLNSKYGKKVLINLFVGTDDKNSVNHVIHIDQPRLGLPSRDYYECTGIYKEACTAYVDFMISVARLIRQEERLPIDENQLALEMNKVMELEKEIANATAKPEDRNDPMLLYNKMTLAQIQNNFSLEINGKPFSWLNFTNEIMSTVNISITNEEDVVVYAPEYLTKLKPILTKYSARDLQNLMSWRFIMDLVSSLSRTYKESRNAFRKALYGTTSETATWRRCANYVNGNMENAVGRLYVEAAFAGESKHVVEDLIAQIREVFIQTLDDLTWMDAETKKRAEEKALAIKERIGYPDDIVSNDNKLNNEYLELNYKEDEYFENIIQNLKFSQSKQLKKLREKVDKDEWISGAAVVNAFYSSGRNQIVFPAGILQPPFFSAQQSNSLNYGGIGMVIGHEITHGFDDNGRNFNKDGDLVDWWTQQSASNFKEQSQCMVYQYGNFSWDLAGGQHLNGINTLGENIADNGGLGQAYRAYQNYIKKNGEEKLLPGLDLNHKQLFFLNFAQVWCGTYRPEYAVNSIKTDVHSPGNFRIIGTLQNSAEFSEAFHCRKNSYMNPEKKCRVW

SMILES | Ki [nM]
O=C(N[C@H](Cc1ccccc1)[C@@H](O)C(=O)O)c1cc(C(=O)O)n(CCO)n1 [Example 8-14, 5-((1R,2R)-1-Benzyl-2-carboxy-2-hydroxy-ethylcarbamoyl)-2-(2-hydroxy-ethyl)-2H-pyrazole-3-carboxylic acid] | 12.6 to 100
O=C(N[C@H](Cc1ccccc1Cl)[C@@H](O)C(=O)O)c1cc(C(=O)O)n(Cc2ccc(Br)cc2)n1 [Example 2-41, 2-(4-Bromo-benzyl)-5-[(1R,2R)-2-carboxy-1-(2-chloro-benzyl)-2-hydroxy-ethylcarbamoyl]-2H-pyrazole-3-carboxylic acid] | ≤ 1
CC(C)CN(C)C(=O)c1cc(C(=O)N[C@H](Cc2ccccc2C(F)(F)F)[C@@H](O)C(=O)O)n[nH]1 [Example 6-3, (2R,3R)-2-Hydroxy-3-{[5-(isobutyl-methyl-carbamoyl)-1H-pyrazole-3-carbonyl]-amino}-4-(2-trifluoromethyl-phenyl)-butyric acid] | 12.6 to 100
CCCCc1cc(C(=O)N[C@H](Cc2ccccc2Cl)[C@@H](O)C(=O)O)nn1Cc1c(F)c(F)c(OC)c(F)c1F [Example 2-69, (2R,3R)-3-{[5-Butyl-1-(2,3,5,6-tetrafluoro-4-methoxy-benzyl)-1H-pyrazole-3-carbonyl]-amino}-4-(2-chloro-phenyl)-2-hydroxy-butyric acid] | ≤ 1
O=C(N[C@H](Cc1ccccc1)[C@@H](O)C(=O)O)c1cc(C(=O)O)n(Cc2ccc(Cl)cc2F)n1 [Example 8-1, 5-((1R,2R)-1-Benzyl-2-carboxy-2-hydroxy-ethylcarbamoyl)-2-(4-chloro-2-fluoro-benzyl)-2H-pyrazole-3-carboxylic acid] | 1.26 to 10
O=C(N[C@H](Cc1ccccc1Cl)[C@@H](O)C(=O)O)c1cc(C(=O)O)[nH]n1 [Example 2-45, 5-[(1R,2R)-2-Carboxy-1-(2-chloro-benzyl)-2-hydroxy-ethylcarbamoyl]-2H-pyrazole-3-carboxylic acid] | 1.26 to 10
O=C(N[C@H](Cc1ccccc1C(F)(F)F)[C@@H](O)C(=O)O)c1cc(C(=O)NC2CC2)[nH]n1 [Example 6-6, (2R,3R)-3-[(5-Cyclopropylcarbamoyl-1H-pyrazole-3-carbonyl)-amino]-2-hydroxy-4-(2-trifluoromethyl-phenyl)-butyric acid] | 12.6 to 100
CNC(=O)c1cc(C(=O)N[C@H](Cc2ccccc2C(F)(F)F)[C@@H](O)C(=O)O)n[nH]1 [Example 6-5, (2R,3R)-2-Hydroxy-3-[(5-methylcarbamoyl-1H-pyrazole-3-carbonyl)-amino]-4-(2-trifluoromethyl-phenyl)-butyric acid] | 12.6 to 100
COc1ccc(Cn2nc(C(=O)N[C@H](Cc3ccccc3)[C@@H](O)C(=O)O)cc2C2CC2)cc1 [Example 8-20, (2R,3R)-3-{[5-Cyclopropyl-1-(4-methoxy-benzyl)-1H-pyrazole-3-carbonyl]-amino}-2-hydroxy-4-phenyl-butyric acid] | 1.26 to 10
O=C(N[C@H](Cc1ccccc1Cl)[C@@H](O)C(=O)O)c1cc(-c2ccc(-c3ccccc3)cc2)[nH]n1 [Example 2-49, (2R,3R)-3-[(5-Biphenyl-4-yl-1H-pyrazole-3-carbonyl)-amino]-4-(2-chloro-phenyl)-2-hydroxy-butyric acid] | 12.6 to 100
O=C(N[C@H](Cc1ccccc1Cl)[C@@H](O)C(=O)O)c1cc(C(=O)O)n(Cc2ccc(F)cc2)n1 [Example 2-20, 5-[(1R,2R)-2-Carboxy-1-(2-chloro-benzyl)-2-hydroxy-ethylcarbamoyl]-2-(4-fluoro-benzyl)-2H-pyrazole-3-carboxylic acid] | 1.26 to 10
CC(Cn1nc(C(=O)N[C@@H](CC(=O)O)Cc2ccccc2Cl)cc1C(=O)O)C(=O)O (stereo partly drawn) [Example 11-10, 5-[(R)-2-Carboxy-1-(2-chloro-benzyl)-ethylcarbamoyl]-2-(2-carboxy-propyl)-2H-pyrazole-3-carboxylic acid] | 12.6 to 100
O=C(N[C@H](Cc1ccccc1C(F)(F)F)[C@@H](O)C(=O)O)c1cc(C(=O)O)n(Cc2ccc(F)cc2)n1 [Example 6-1, 5-[(1R,2R)-2-Carboxy-2-hydroxy-1-(2-trifluoromethyl-benzyl)-ethylcarbamoyl]-2-(4-fluoro-benzyl)-2H-pyrazole-3-carboxylic acid] | 1.26 to 10
COc1c(F)c(F)c(Cn2nc(C(=O)N[C@H](Cc3ccccc3)[C@@H](O)C(=O)O)cc2C2CC2)c(F)c1F [Example 8-22, (2R,3R)-3-{[5-Cyclopropyl-1-(2,3,5,6-tetrafluoro-4-methoxy-benzyl)-1H-pyrazole-3-carbonyl]-amino}-2-hydroxy-4-phenyl-butyric acid] | ≤ 1
O=C(N[C@H](Cc1ccccc1Cl)[C@@H](O)C(=O)O)c1cc(C(=O)O)n(Cc2c(F)cc(Cl)cc2F)n1 [Example 2-2, 5-[(1R,2R)-2-Carboxy-1-(2-chloro-benzyl)-2-hydroxy-ethylcarbamoyl]-2-(4-chloro-2,6-difluoro-benzyl)-2H-pyrazole-3-carboxylic acid] | 1.26 to 10
O=C(N[C@H](Cc1ccccc1Cl)[C@@H](O)C(=O)O)c1cc(C(=O)O)n(Cc2ccc(OC(F)(F)F)c(F)c2)n1 [Example 2-39, 5-[(1R,2R)-2-Carboxy-1-(2-chloro-benzyl)-2-hydroxy-ethylcarbamoyl]-2-(3-fluoro-4-trifluoromethoxy-benzyl)-2H-pyrazole-3-carboxylic acid] | ≤ 1
COc1ccc(Cn2nc(C(=O)N[C@H](Cc3ccccc3C(F)(F)F)[C@@H](O)C(=O)O)cc2C(=O)O)cc1 [Example 5, 5-[(1R,2R)-2-Carboxy-2-hydroxy-1-(2-trifluoromethylbenzyl)-ethylcarbamoyl]-2-(4-methoxybenzyl)-2H-pyrazole-3-carboxylic Acid] | 1.26 to 10
Cc1ccccc1C[C@H](CC(=O)O)NC(=O)c1cc(C(=O)O)[nH]n1 [Example 13, 5-((R)-1-Carboxymethyl-2-o-tolyl-ethylcarbamoyl)-2H-pyrazole-3-carboxylic Acid] | 12.6 to 100
COc1ccc(Cn2nc(C(=O)N[C@H](Cc3ccccc3Cl)[C@@H](O)C(=O)O)cc2C(=O)N(C)C)cc1 [Example 2-73, (2R,3R)-4-(2-Chloro-phenyl)-3-{[5-dimethylcarbamoyl-1-(4-methoxy-benzyl)-1H-pyrazole-3-carbonyl]-amino}-2-hydroxy-butyric acid] | 12.6 to 100
O=C(N[C@H](Cc1ccccc1Cl)[C@@H](O)C(=O)O)c1cc(-c2ccccc2Cl)[nH]n1 [Example 2-48, (2R,3R)-4-(2-Chloro-phenyl)-3-{[5-(2-chloro-phenyl)-1H-pyrazole-3-carbonyl]-amino}-2-hydroxy-butyric acid] | 1.26 to 10
O=C(N[C@H](Cc1ccccc1Cl)[C@@H](O)C(=O)O)c1cc(C(=O)O)n(Cc2ccc(OC(F)F)cc2)n1 [Example 2-26, 5-[(1R,2R)-2-Carboxy-1-(2-chloro-benzyl)-2-hydroxy-ethylcarbamoyl]-2-(4-difluoromethoxy-benzyl)-2H-pyrazole-3-carboxylic acid] | ≤ 1
O=C(N[C@H](Cc1ccccc1Cl)[C@@H](O)C(=O)O)c1cc(C(=O)O)n(Cc2cc(F)cc(Cl)c2)n1 [Example 2-16, 5-[(1R,2R)-2-Carboxy-1-(2-chloro-benzyl)-2-hydroxy-ethylcarbamoyl]-2-(3-chloro-5-fluoro-benzyl)-2H-pyrazole-3-carboxylic acid] | 1.26 to 10
Cn1nc(C(=O)N[C@H](Cc2ccccc2Cl)[C@@H](O)C(=O)O)cc1-c1ccccc1 [Example 2-58, (2R,3R)-4-(2-Chloro-phenyl)-2-hydroxy-3-[(1-methyl-5-phenyl-1H-pyrazole-3-carbonyl)-amino]-butyric acid] | 12.6 to 100
O=C(N[C@H](Cc1ccccc1Cl)[C@@H](O)C(=O)O)c1cc(NC(=O)c2ccccc2Cl)[nH]n1 [Example 2-57, (2R,3R)-3-{[5-(2-Chloro-benzoylamino)-1H-pyrazole-3-carbonyl]-amino}-4-(2-chloro-phenyl)-2-hydroxy-butyric acid] | 12.6 to 100
O=C(N[C@H](Cc1ccccc1Cl)[C@@H](O)C(=O)O)c1cc(C(=O)O)n(Cc2ccc(Cl)c(C(F)(F)F)c2)n1 [Example 2-18, 5-[(1R,2R)-2-Carboxy-1-(2-chloro-benzyl)-2-hydroxy-ethylcarbamoyl]-2-(4-chloro-3-trifluoromethyl-benzyl)-2H-pyrazole-3-carboxylic acid] | 12.6 to 100
COc1ccc(Cn2ccc(C(=O)N[C@H](Cc3ccccc3Cl)[C@@H](O)C(=O)O)n2)c(F)c1F [Example 2-65, (2R,3R)-4-(2-Chloro-phenyl)-3-{[1-(2,3-difluoro-4-methoxy-benzyl)-1H-pyrazole-3-carbonyl]-amino}-2-hydroxy-butyric acid] | 1.26 to 10
